The values that follow come from patent US10781229B2, “Tris- or neopentyl glycol-based amphiphiles and uses thereof” (Industry-University Cooperation Foundation Hanyang …, priority 2015, dated 2020).

The structures appear in SMILES notation. “Also recorded” adds a separate entry of the source.

The target of one assay is LeuT E192C^TMR (Aquifex aeolicus, UniProt O67854, E192C). Kind of assay: Site-directed fluorescence (iodide) quenching of LeuT E192C-TMR, Stern-Volmer analysis. Particulars: for Δ KSV: leucine-induced change of iodide accessibility of TMR, CMC+0.04% by weight detergent, means [s.e.m. interval]; for Ksv when leucine is absent: no leucine, LeuT E192C-TMR in CMC+0.04% by weight detergent. It counts as biochemical. The text has this: A principle of this experiment is as follows: A cysteine residue was inserted into a 192th LeuT site (E192C), followed by coupling with a thiol-reactive fluorophore (tetramethylrhodamine-5-maleimide, TMR). The prepared LeuT E192C^TMR, as TMR-coupled LeuT, is an excellent system to sensitively monitor protein structure change in response to ligand coupling. […] Due to such change, TMR fluorescence molecules exposed to an aqueous solution become closer to iodide (I^−), as a quencher dissolved in water, whereby strong fluorescence quenching is caused. TMR quenching intensity by leucine coupling may be represented by Stern-Volmer plotting and thus structural flexibility of a protein may be directly measured. Ligand bindability of the TMR-labeled transporter was measured using SPA while increasing the amount of [^3H]leucine.
In particular, structure, expression, purification, and fluorescence labeling were performed according to the following methods. In accordance with a method disclosed in a paper published by C. B. Billesbolle, et al. (J. Biol. Chem. 2015, 290, 26725-26738), a leucine transporter mutant (LeuT E192C^TMR) was produced and purification and labeling were carried out. In summary, a residue of the E192 was mutated with cysteine using QuikChange (Agilent Technologies) such that fluorescence coupling was accomplished by maleimide labeling. The LeuT mutant was expressed in E. coli C41 (DE3). A membrane of DE3 was disrupted and LeuT was solubilized with 1% (w/v) DDM. Subsequently, LeuT solubilized with the amphipathic molecule was fixed to a Chelating Sepharose Fast Flow resin (GE Healthcare, Little Chalfont, UK), followed by washing with tetramethylrhodamine-5-maleimide (TMR, Life Technologies, Carlsbad, Calif., USA) at 4° C. for 16 hours. Subsequently, LeuT was eluted with a buffer containing 300 mM imidazole, 20 mM Tris-HCl (pH 8.0), 1 mM NaCl, 199 mM KCl, and 0.05% DDM.
Fluorescence spectroscopy was carried out according to the following method. A fluorescence-based experiment was carried out by diluting 0.5 μg ml^−1 of fluorescence-labeled LeuT with buffer A supplemented with CMC+0.04% by weight of DDM, MNG-3 or NDT-C11. Leucine was separately added to specimen aliquots of LeuT for each concentration and incubated for one hour in a room temperature shaker. Steady-state fluorescence intensities were recorded with a FluoroMax4 (Horiba Scientific, Edison, N.J., USA) at λem=572 nm and excitation source at λex=552 nm at 25° C. Quencher-titration was carried out by successive additions of small specimen aliquots containing 1 M KI into buffer A supplemented with 10 mM Na2S2O3. Fluorescence intensities (F) were corrected for sample dilution and normalized to the initial intensity (F0) of a sample. All data was analyzed by linear-(Stern-Volmer plot) or nonlinear regression in GraphPad Prism 6.0 (GraphPad Software). The degree of iodide (I^−) accessibility was obtained from the following Stern-Volmer equation: F0/F=1+Ksv×[Q], where F0/F is normalized fluorescence quenching, Ksv is a Stern-Volmer constant, and [Q] is quencher concentration. When means are calculated as a log, the means are shown as pIC50 and the [s.e.m. interval] from pIC50±s.e.m.
Values of radioligand binding constants were calculated through SPA saturation binding experiments. Values of iodide quenching-response constants and ΔKSV were calculated from a site-directed fluorescence quenching spectroscopy. The affinity (Kd) is shown as means±s.e.m and ΔKSV is shown as means [s.e.m. interval]. All data is shown as means of three to four independent experiments.

For assay [1], the target named is T1, uric acid-xanthine/H+ symporter (UapA) (Emericella nidulans, UniProt Q07307, G411V).
T1 construct: GFP; made in house; host or cells: Saccharomyces cerevisiae FGY217
T1 sequence (Q07307 12-574 G411V): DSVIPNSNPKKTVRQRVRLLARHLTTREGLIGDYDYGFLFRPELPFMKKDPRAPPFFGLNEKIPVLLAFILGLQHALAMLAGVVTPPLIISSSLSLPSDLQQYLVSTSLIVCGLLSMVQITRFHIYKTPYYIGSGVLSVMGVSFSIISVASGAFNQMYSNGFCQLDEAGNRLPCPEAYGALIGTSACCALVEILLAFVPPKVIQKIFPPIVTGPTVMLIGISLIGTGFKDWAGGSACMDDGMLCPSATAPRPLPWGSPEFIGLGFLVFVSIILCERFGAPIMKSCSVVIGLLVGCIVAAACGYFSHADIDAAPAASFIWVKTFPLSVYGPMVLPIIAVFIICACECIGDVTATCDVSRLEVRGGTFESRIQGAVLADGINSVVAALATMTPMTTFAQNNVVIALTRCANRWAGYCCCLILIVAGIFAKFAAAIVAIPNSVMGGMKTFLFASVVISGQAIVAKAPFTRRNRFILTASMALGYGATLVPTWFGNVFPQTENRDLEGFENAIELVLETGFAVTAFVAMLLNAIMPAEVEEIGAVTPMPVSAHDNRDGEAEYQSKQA
Kind of assay: UapA structural stability by CPM assay. Further details: species or system Aspergillus nidulans. Particulars: 40° C. The method, then: Experiments to measure the structural stability of a uric acid-xanthine/H+ symporter (UapA) due to TDTs or NDTs in an aqueous solution were conducted. The structural stability of UapA was measured using CPM assay, and the concentrations of TDTs, NDTs, and DDM concentration were CMC+0.04% by weight.
In particular, UapA protein is a uric acid-xanthine/H+ symporter in Aspergillus nidulans). The stability of the protein was measured using N-[4-(7-Diethylamino-4-methyl-3-coumarinyl)phenyl]maleimide (CPM), as a sulfhydryl-specific fluorophore, by means of a fluorescence spectrophotometer. A free sulfhydryl group of a cysteine residue is present within the center of the protein but may be present near a solvent due to unfolding of the protein. CPM becomes fluorescent by reaction with free thiol and, accordingly, functions as a sensor of unfolding. […] The reaction was monitored at 40° C. for 120 minutes by means of a microplate spectrofluorometer. So as to calculate a ratio of folded proteins relative to remaining proteins after being maintained at 40° C. for […], relative maximum fluorescence was used. […]

`CCCCCCCCCCCCOC1OC(CO)C(OC2OC(CO)C(O)C(O)C2O)C(O)C1O` [DDM, n-dodecyl-β-D-maltopyranoside, reference compound]: at LeuT E192C^TMR, the “Δ KSV” value was determined as 1.1 M⁻¹ and the “Ksv when leucine is absent” value was “up to 1.6”.

With `CCCCCCCCCCCC(CCCCCCCCCCC)COCC(CO[C@@H]1OC(CO)[C@@H](O)C(O)C1O)(CO[C@@H]1OC(CO)[C@@H](O)C(O)C1O)CO[C@@H]1OC(CO)[C@@H](O)C(O)C1O` (stereo partly shown) [NDT-C11], the “UapA protein structural stability (amount of folded protein)” value in assay [1] (CMC+0.04% by weight) is listed as “most excellent”. Besides, the “UapA protein structural stability (amount of folded protein)” value in assay [1] (CMC+0.2% by weight) is “most excellent; also recorded: superior to those of MNG-3”. Moreover, the “Structural fluidity of the LeuT protein” value on LeuT E192C^TMR (conclusion from ΔKsv) is listed as “satisfactorily maintains the structural fluidity”. Besides, on LeuT E192C^TMR, the “Δ KSV” value came to 0.9 M⁻¹ and the “Ksv when leucine is absent” value is recorded as “up to 2.5”.
